# Legend:
# Assay type in all cases: cell-based, human
# [1] = system: NCI-H249 SCLC cells; test: Cell cycle analysis in NCI-H249 cells; settings: unsynchronized NCI-H249 SCLC cells; 5 μM; 72 h; FIG. 3e
# [2] = system: NCI-H249 SCLC cells; test: Soft agar clonogenicity of NCI-H249 SCLC cells; settings: FIG. 4a, b
# [3] = system: NCI-H249 SCLC cells; test: Cleaved PARP expression (apoptosis) by immunoblot; settings: 5 μM, 72 h, FIG. 3f
# Procedure: Whole-cell lysates were sonicated in 2% SDS/50 mM TrisHCl, pH 8. […] Anti-cleaved PARP was obtained from Promega.
# [4] = system: Ptch mRNA; test: Ptch mRNA expression by northern blot analysis; settings: NCI-H249 SCLC cells, FIG. 3g
# [5] = system: NCI-H249 SCLC cells; test: Cell growth of NCI-H249 SCLC cells (MTT assay); settings: for cell growth after compound treatment: NCI-H249 SCLC cells, 5 days, FIG. 3b
# Procedure: (§1) MTT assays were performed as described (Sriuranpong (2002), supra).
# [6] = system: BMP4, nestin and ASH-1 transcripts; test: RT-PCR analysis of transcripts in NCI-H249 SCLC cells; settings: 48 h, FIG. 3h
# Procedure: Total cellular RNA was treated with DNAse, reverse transcribed, and amplified for 31 cycles at an annealing temperature of 55° C. Primers used were: […]
# [7] = system: NCI-H157 NSCLC cells; test: Cell growth of NCI-H157 NSCLC cells (MTT assay); settings: 5 days, FIG. 3c
# Procedure: as §1
Structure (SMILES),cell cycle effect [1],"soft agar clonogenicity effect in cells overexpressing GLI-1 ([2]; NCI-H249 SCLC cells stably transfected with Flag-Gli1, cyclopamine 5 μM)",soft agar clonogenicity ([2]; NCI-H249 SCLC cells),apoptosis (cleaved PARP) [3],Ptch mRNA expression [4],"growth inhibition by cyclopamine in cells stably expressing Flag-tagged GLI-1 ([5]; NCI-H249 SCLC cells stably transfected with Flag-Gli1, MTT, FIG. 3d)","growth inhibition by cyclopamine in cells expressing GLI-1 mutant lacking the zinc finger DNA-binding domain ([5]; NCI-H249 SCLC cells stably transfected with Flag-Gli1ZFD, MTT, FIG. 3d)",BMP4 expression [6],human ASH-1 expression [6],nestin expression [6],cell growth after compound treatment [5],cell growth after compound treatment [7]
CC1=C2C[C@H]3[C@@H](CC=C4C[C@@H](O)CC[C@@]43C)[C@@H]2CC[C@]12O[C@@H]1C[C@H](C)CN[C@H]1[C@H]2C [cyclopamine],arrest of the cell cycle in Go/G1,reversed,reduced soft agar clonogenicity,increase in cleaved PARP,downregulation,protected NCI-H249 SCLC cells from growth inhibition,had no effect,inhibited expression,inhibited expression,inhibited expression,–,–
C[C@H]1CC[C@]2(NC1)O[C@H]1C[C@H]3[C@@H]4CC[C@H]5C[C@@H](O)CC[C@]5(C)[C@H]4CC[C@]3(C)[C@H]1[C@@H]2C [tomatidine],–,–,–,–,–,–,–,–,–,–,no effect,"None of KAAD-cyclopamine, cyclopamine or tomatidine was able to affect growth"
CC1=C2C[C@H]3[C@@H](CC=C4CC(=O)CC[C@@]43C)[C@@H]2CC[C@]12O[C@@H]1C[C@H](C)CN(CCNC(=O)CCCCCNC(=O)CCc3ccccc3)[C@H]1[C@H]2C [KAAD-cyclopamine],–,–,–,–,–,–,–,–,–,–,significant growth inhibition,"None of KAAD-cyclopamine, cyclopamine or tomatidine was able to affect growth"

# Source: patent US20080057071A1, “Use Of Hedgehog Pathway Inhibitors In Small-Cell Lung Cancer” (priority 2003, published 2008)
